Laboratory results published in PubChem BioAssay AID184 (DTP/NCI, 2004).
Several values for one entry are separate records, joined by “and”; a condition that tells them apart may be missing. Equal entries are not always repeated. Toxic doses and inconclusive results are not listed.

System: BALB/cJ mice, ADJ-PC-6 ip tumor, median survival T/C
Experiment: NCI In Vivo Anticancer Drug Screen. Data for tumor model ADJ-PC-6 (intraperitoneal) in BALB/cJ mice
Settings: endpoint: median survival time, higher = longer survival
Procedure: The antitumor activity of compounds was measured in mice bearing transplantable tumors. Survival or tumor size were measured and the results are expressed as the measurement made in the treated group (T) divided by the measurement made in the vehicle treated control group (C). The tumor model used in this assay is ADJ-PC-6 (intraperitoneal) in BALB/cJ mice

[1] = dose: 10.0 mg/kg/injection, schedule: Q04DX003 (ip), vehicle: saline
[2] = dose: 20.0 mg/kg/injection, schedule: Q04DX003 (ip), vehicle: saline

Structure (SMILES): Nc1ncn(C2OC(CO)C(O)C2O)c(=O)n1 (stereo not drawn)
- T/C (dose: 2.0 mg/kg/injection, schedule: Q04DX003 (ip), vehicle: saline): 120 % of control
- T/C (dose: 8.0 mg/kg/injection, schedule: Q04DX003 (ip), vehicle: saline): 157 % of control
- T/C [1]: 185 % of control
- T/C [2]: 219 % of control
- T/C (dose: 32.0 mg/kg/injection, schedule: Q04DX003 (ip), vehicle: saline): 235 % of control

Structure (SMILES): Cc1c(N)nc([C@H](CC(N)=O)NC[C@H](N)C(N)=O)nc1C(=O)N[C@H](C(=O)N[C@H](C)[C@@H](O)[C@H](C)C(=O)N[C@H](C(=O)NCCc1nc(-c2nc(C(=O)NCCC[S+](C)C)cs2)cs1)[C@@H](C)O)C(OC1OC(CO)C(O)C(O)C1OC1OC(CO)C(O)C(OC(N)=O)C1O)c1cnc[nH]1 (stereo partly drawn)
- T/C (dose: 3.75 mg/kg/injection, schedule: Q04DX003 (ip), vehicle: saline): 101 % of control and 108 % of control
- T/C (dose: 7.5 mg/kg/injection, schedule: Q04DX003 (ip), vehicle: saline): 89 % of control and 116 % of control
- T/C (dose: 15.0 mg/kg/injection, schedule: Q04DX003 (ip), vehicle: saline): 102 % of control
- T/C (dose: 30.0 mg/kg/injection, schedule: Q04DX003 (ip), vehicle: saline): 105 % of control and 112 % of control
- T/C (dose: 60.0 mg/kg/injection, schedule: Q04DX003 (ip), vehicle: saline): 106 % of control and 116 % of control

Structure (SMILES): Cc1c2ccncc2c(C)c2c1[nH]c1ccccc12
- T/C (dose: 6.25 mg/kg/injection, schedule: Q04DX003 (ip), vehicle: saline with Tween-80): 122 % of control
- T/C (dose: 25.0 mg/kg/injection, schedule: Q04DX003 (ip), vehicle: saline with Tween-80): 190 % of control
- T/C (dose: 50.0 mg/kg/injection, schedule: Q04DX003 (ip), vehicle: saline with Tween-80): 255 % of control
- T/C (dose: 100.0 mg/kg/injection, schedule: Q04DX003 (ip), vehicle: saline with Tween-80): 250 % of control

Structure (SMILES): CC1(C)N=C(N)N=C(N)N1c1ccc(CCCCc2ccc(S(=O)(=O)F)cc2Cl)c(Cl)c1
- T/C (dose: 2.5 mg/kg/injection, schedule: Q01DX009 (ip), vehicle: saline): 88 % of control
- T/C (dose: 5.0 mg/kg/injection, schedule: Q01DX009 (ip), vehicle: saline): 101 % of control
- T/C (dose: 10.0 mg/kg/injection, schedule: Q01DX009 (ip), vehicle: saline): 106 % of control
- T/C (dose: 12.5 mg/kg/injection, schedule: Q04DX003 (ip), vehicle: Klucel (hydroxypropylcellulose) (HPC)): 96 % of control
- T/C (dose: 20.0 mg/kg/injection, schedule: Q01DX009 (ip), vehicle: saline): 119 % of control
- T/C (dose: 25.0 mg/kg/injection, schedule: Q04DX003 (ip), vehicle: Klucel (hydroxypropylcellulose) (HPC)): 91 % of control
- T/C (dose: 50.0 mg/kg/injection, schedule: Q04DX003 (ip), vehicle: Klucel (hydroxypropylcellulose) (HPC)): 92 % of control
- T/C (dose: 100.0 mg/kg/injection, schedule: Q04DX003 (ip), vehicle: Klucel (hydroxypropylcellulose) (HPC)): 91 % of control
- T/C (dose: 200.0 mg/kg/injection, schedule: Q04DX003 (ip), vehicle: Klucel (hydroxypropylcellulose) (HPC)): 91 % of control

Structure (SMILES): CN(C)c1nc(N(C)C)nc(N(C)C)n1
- T/C (dose: 20.0 mg/kg/injection, schedule: Q01DX009 (ip), vehicle: saline with Tween-80): 102 % of control
- T/C (dose: 40.0 mg/kg/injection, schedule: Q01DX009 (ip), vehicle: Klucel (hydroxypropylcellulose) (HPC)): 96 % of control
- T/C (dose: 40.0 mg/kg/injection, schedule: Q01DX009 (ip), vehicle: saline with Tween-80): 100 % of control

Structure (SMILES): CC1(CO)C(O)CCC2(C)C1CCC1CC3CC12CCC3(O)CO (stereo not drawn)
- T/C (dose: 37.5 mg/kg/injection, schedule: Q04DX003 (ip), vehicle: Klucel (hydroxypropylcellulose) (HPC)): 92 % of control and 120 % of control
- T/C (dose: 75.0 mg/kg/injection, schedule: Q04DX003 (ip), vehicle: Klucel (hydroxypropylcellulose) (HPC)): 115 % of control and 118 % of control
- T/C (dose: 150.0 mg/kg/injection, schedule: Q04DX003 (ip), vehicle: Klucel (hydroxypropylcellulose) (HPC)): 100 % of control and 109 % of control
- T/C (dose: 600.0 mg/kg/injection, schedule: Q04DX003 (ip), vehicle: Klucel (hydroxypropylcellulose) (HPC)): 106 % of control

Structure (SMILES): O=C(O)c1ccc(C(=O)O)o1.[NH-]C1CCCCC1[NH-].[Pt+2]
- T/C (dose: 2.59 mg/kg/injection, schedule: Q04DX003 (ip), vehicle: water): 265 % of control
- T/C (dose: 4.3 mg/kg/injection, schedule: Q04DX003 (ip), vehicle: water): 254 % of control
- T/C (dose: 7.2 mg/kg/injection, schedule: Q04DX003 (ip), vehicle: water): 367 % of control
- T/C (dose: 12.0 mg/kg/injection, schedule: Q04DX003 (ip), vehicle: water): 234 % of control
- T/C (dose: 20.0 mg/kg/injection, schedule: Q04DX003 (ip), vehicle: water): 451 % of control

Structure (SMILES): CS(=O)(=O)c1ncc(Br)cn1
- T/C (dose: 25.0 mg/kg/injection, schedule: Q01DX009 (ip), vehicle: saline with Tween-80): 105 % of control
- T/C (dose: 50.0 mg/kg/injection, schedule: Q01DX009 (ip), vehicle: saline with Tween-80): 105 % of control
- T/C (dose: 100.0 mg/kg/injection, schedule: Q01DX009 (ip), vehicle: saline with Tween-80): 118 % of control
- T/C (dose: 200.0 mg/kg/injection, schedule: Q01DX009 (ip), vehicle: saline with Tween-80): 100 % of control

Structure (SMILES): CC(=O)[C@]1(O)Cc2c(O)c3c(c(O)c2[C@@H](OC2CC(N)C(O)C(C)O2)C1)C(=O)c1c(O)cccc1C3=O (stereo partly drawn)
- T/C (dose: 0.13 mg/kg/injection, schedule: Q04DX003 (ip), vehicle: saline): 164 % of control
- T/C (dose: 0.25 mg/kg/injection, schedule: Q04DX003 (ip), vehicle: saline): 168 % of control
- T/C (dose: 0.5 mg/kg/injection, schedule: Q04DX003 (ip), vehicle: saline): 178 % of control

Structure (SMILES): O=P1(N(CCCl)CCCl)NCCCO1 (stereo not drawn)
- T/C [1]: 99 % of control
- T/C (dose: 10.0 mg/kg/injection, schedule: Q04DX003 (iv), vehicle: saline): 88 % of control
- T/C (dose: 19.4 mg/kg/injection, schedule: Q04DX003 (ip), vehicle: saline): 108 % of control
- T/C [2]: 109 % of control and 110 % of control
- T/C (dose: 20.0 mg/kg/injection, schedule: Q04DX003 (iv), vehicle: saline): 95 % of control
- T/C (dose: 32.4 mg/kg/injection, schedule: Q04DX003 (ip), vehicle: saline): 166 % of control
- T/C (dose: 40.0 mg/kg/injection, schedule: Q04DX003 (ip), vehicle: saline): 173 % of control and 178 % of control
- T/C (dose: 54.0 mg/kg/injection, schedule: Q04DX003 (ip), vehicle: saline): 189 % of control
- T/C (dose: 80.0 mg/kg/injection, schedule: Q04DX003 (ip), vehicle: saline): 168 % of control and 335 % of control
- T/C (dose: 80.0 mg/kg/injection, schedule: Q04DX003 (iv), vehicle: saline): 194 % of control
- T/C (dose: 90.0 mg/kg/injection, schedule: Q04DX003 (ip), vehicle: saline): 267 % of control
- T/C (dose: 150.0 mg/kg/injection, schedule: Q04DX003 (ip), vehicle: saline): 340 % of control
- T/C (dose: 160.0 mg/kg/injection, schedule: Q04DX003 (ip), vehicle: saline): 194 % of control and 335 % of control
- T/C (dose: 160.0 mg/kg/injection, schedule: Q04DX003 (iv), vehicle: saline): 194 % of control

Structure (SMILES): CN1N=C(N)c2cn(C3OC(COP(=O)(O)O)C(O)C3O)c3ncnc1c23 (stereo not drawn)
- T/C (dose: 12.5 mg/kg/injection, schedule: Q04DX003 (ip), vehicle: saline): 222 % of control
- T/C (dose: 12.5 mg/kg/injection, schedule: Q04DX003 (ip), vehicle: water): 471 % of control
- T/C (dose: 25.0 mg/kg/injection, schedule: Q04DX003 (ip), vehicle: saline): 222 % of control
- T/C (dose: 25.0 mg/kg/injection, schedule: Q04DX003 (ip), vehicle: water): 471 % of control
- T/C (dose: 50.0 mg/kg/injection, schedule: Q04DX003 (ip), vehicle: saline): 222 % of control and 275 % of control and 369 % of control
- T/C (dose: 50.0 mg/kg/injection, schedule: Q04DX003 (ip), vehicle: water): 471 % of control
- T/C (dose: 100.0 mg/kg/injection, schedule: Q04DX003 (ip), vehicle: saline): 222 % of control and 275 % of control and 369 % of control
- T/C (dose: 100.0 mg/kg/injection, schedule: Q04DX003 (ip), vehicle: water): 471 % of control
- T/C (dose: 200.0 mg/kg/injection, schedule: Q04DX003 (ip), vehicle: saline): 275 % of control and 369 % of control

Structure (SMILES): NC(=O)c1cn(C2OC(CO)C(O)C2O)c2ncnc(N)c12 (stereo not drawn)
- T/C (dose: 0.4 mg/kg/injection, schedule: Q04DX003 (ip), vehicle: saline with Tween-80): 107 % of control
- T/C (dose: 0.8 mg/kg/injection, schedule: Q04DX003 (ip), vehicle: saline with Tween-80): 173 % of control
- T/C (dose: 6.0 mg/kg/injection, schedule: Q04DX003 (ip), vehicle: saline with Tween-80): 182 % of control

Structure (SMILES): CC1OC(=O)C(C(C)C)NC(=O)C(C(C)C)OC(=O)C(C(C)C)NC(=O)C(C)OC(=O)C(C(C)C)NC(=O)C(C(C)C)OC(=O)C(C(C)C)NC(=O)C(C)OC(=O)C(C(C)C)NC(=O)C(C(C)C)OC(=O)C(C(C)C)NC1=O (stereo not drawn)
- T/C (dose: 0.75 mg/kg/injection, schedule: Q04DX003 (ip), vehicle: Klucel (hydroxypropylcellulose) (HPC)): 87 % of control
- T/C (dose: 1.5 mg/kg/injection, schedule: Q04DX003 (ip), vehicle: Klucel (hydroxypropylcellulose) (HPC)): 102 % of control
- T/C (dose: 2.0 mg/kg/injection, schedule: Q01DX009 (ip), vehicle: Klucel (hydroxypropylcellulose) (HPC)): 100 % of control
- T/C (dose: 4.0 mg/kg/injection, schedule: Q01DX009 (ip), vehicle: Klucel (hydroxypropylcellulose) (HPC)): 104 % of control
- T/C (dose: 8.0 mg/kg/injection, schedule: Q01DX009 (ip), vehicle: Klucel (hydroxypropylcellulose) (HPC)): 185 % of control
